Measured values from patent US11331299B2, “Medicinal use of serrulatane diterpenes” (The University of Sydney, priority 2016, dated 2022).
pEC50, pIC50: −log10 of the molar value. Like-named read-outs stand apart in the source and are kept apart here.

Tested on: 280 human cancer cell lines
Assay: OncoPanel cell proliferation assay (10-day)
Assay type: cell-based
Details: Homo sapiens; for GI50: read-out: Cell Count GI50; for pIC50: read-out: Cell Count IC50; for pEC50: read-out: Cell Count EC50
[1] = KHOS-240S, Soft Tissue - Osteosarcoma
[2] = ME-180, ME-180, Female GU - Ovary
[3] = MG-63, MG-63, Soft Tissue - Osteosarcoma
[4] = MHH-PREB-1, MHH-PREB-1, Leukemia
[5] = MIA PaCa-2, Mia PaCa-2, Pancreas
[6] = MS751, MS751, Female GU - Ovary
[7] = Malme-3M, MALME3M, Skin (Melanoma)
[8] = NCI-H292, NCI-H292, Lung - NSCLC
[9] = NCI-H441, NCIH441, Lung - NSCLC
[10] = NCI-H460, NCI-H460, Lung - NSCLC
[11] = NCI-H520, NCI-H520, Lung - NSCLC
[12] = NCI-H596, NCI-H596, Lung - NSCLC
[13] = NCI-H661, NCI-H661, Lung - NSCLC
[14] = NTERA-2-cl-D1, NTERA-2 cl.D1, Testis
[15] = OVCAR-3, OVCAR3, Female GU - Ovary
[16] = RPMI-7951, RPMI-7951, Skin (Melanoma)
[17] = SAOS-2, SaOS2, Soft Tissue - Osteosarcoma

CC(C)=CCC[C@H](CO)[C@@H]1CC[C@@H](C)c2c1cc(C)c(O)c2O [Compound 1, 7,8,18-trihydroxyserrulat-14-ene]
GI50 [1]: 950 nM | pIC50 [1]: 6.02 | pEC50 (KLE, Female GU - Uterus): 5.43 | GI50 (KLE, Female GU - Uterus): 3560 nM | pIC50 (KLE, Female GU - Uterus): 5.42 | pEC50 (KPL-1, KPL-1, Breast): 6.09 | GI50 (KPL-1, KPL-1, Breast): 810 nM | pIC50 (KPL-1, KPL-1, Breast): 6.09 | pEC50 (KU812, KU812, Leukemia): 5.55 | GI50 (KU812, KU812, Leukemia): 2570 nM | pIC50 (KU812, KU812, Leukemia): 5.55 | pEC50 (L-428, L-428, Lymphoma): 5.97 | GI50 (L-428, L-428, Lymphoma): 1080 nM | pIC50 (L-428, L-428, Lymphoma): 5.96 | pEC50 (LNCaP, Prostate): 5.41 | GI50 (LNCaP, Prostate): 3470 nM | pIC50 (LNCaP, Prostate): 5.41 | pEC50 (LS-123, LS123, Colon): 5.95 | GI50 (LS-123, LS123, Colon): 1030 nM | pIC50 (LS-123, LS123, Colon): 5.94 | pEC50 (LS-411N, LS411N, Colon): 5.06 | GI50 (LS-411N, LS411N, Colon): 8510 nM | pIC50 (LS-411N, LS411N, Colon): 5.06 | pEC50 (LS-1034, LS1034, Colon): 5.73 | GI50 (LS-1034, LS1034, Colon): 1830 nM | pIC50 (LS-1034, LS1034, Colon): 5.73 | pEC50 (M059J, CNS - Glioma): 5.51 | GI50 (M059J, CNS - Glioma): 3020 nM | pIC50 (M059J, CNS - Glioma): 5.51 | pEC50 (MC116, MC116, Lymphoma): 5.42 | GI50 (MC116, MC116, Lymphoma): 3780 nM | pIC50 (MC116, MC116, Lymphoma): 5.42 | pEC50 (MC-IXC, CNS - Neuroblastoma): 5.40 | GI50 (MC-IXC, CNS - Neuroblastoma): 4000 nM | pIC50 (MC-IXC, CNS - Neuroblastoma): 5.40 | pEC50 (MCF7, MCF7, Breast): 5.86 | GI50 (MCF7, MCF7, Breast): 1350 nM | pIC50 (MCF7, MCF7, Breast): 5.86 | pEC50 (MDA-MB-231, MDA MB 231, Breast): 5.83 | GI50 (MDA-MB-231, MDA MB 231, Breast): 1470 nM | pIC50 (MDA-MB-231, MDA MB 231, Breast): 5.83 | pEC50 (MDA-MB-436, MDA-MB-436, Breast): 5.57 | GI50 (MDA-MB-436, MDA-MB-436, Breast): 2670 nM | pIC50 (MDA-MB-436, MDA-MB-436, Breast): 5.57 | pEC50 (MDA-MB-453, MDA MB 453, Breast): 6.11 | GI50 (MDA-MB-453, MDA MB 453, Breast): 770 nM | pIC50 (MDA-MB-453, MDA MB 453, Breast): 6.11 | pEC50 (MDA-MB-468, MDA MB 468, Breast): 5.56 | GI50 (MDA-MB-468, MDA MB 468, Breast): 2740 nM | pIC50 (MDA-MB-468, MDA MB 468, Breast): 5.56 | pEC50 [2]: 5.65 | GI50 [2]: 2210 nM | pIC50 [2]: 5.65 | pEC50 (MEG-01, MEG01, Leukemia): 5.13 | GI50 (MEG-01, MEG01, Leukemia): 7220 nM | pIC50 (MEG-01, MEG01, Leukemia): 5.13 | pEC50 (MES-SA, Soft Tissue - Sarcoma): 5.91 | GI50 (MES-SA, Soft Tissue - Sarcoma): 1220 nM | pIC50 (MES-SA, Soft Tissue - Sarcoma): 5.91 | pEC50 [3]: 5.03 | GI50 [3]: 9160 nM | pIC50 [3]: 5.03 | pEC50 [4]: 5.21 | GI50 [4]: 6170 nM | pIC50 [4]: 5.21 | pEC50 [5]: 5.53 | GI50 [5]: 2970 nM | pIC50 [5]: 5.53 | pEC50 (MOLT-3, MOLT-3, Leukemia): 5.67 | GI50 (MOLT-3, MOLT-3, Leukemia): 2110 nM | pIC50 (MOLT-3, MOLT-3, Leukemia): 5.67 | pEC50 (MOLT-16, MOLT-16, Leukemia): 5.74 | GI50 (MOLT-16, MOLT-16, Leukemia): 1840 nM | pIC50 (MOLT-16, MOLT-16, Leukemia): 5.74 | pEC50 [6]: 5.65 | GI50 [6]: 2210 nM | pIC50 [6]: 5.65 | pEC50 (MT-3, Colon): 5.44 | GI50 (MT-3, Colon): 3660 nM | pIC50 (MT-3, Colon): 5.44 | pEC50 (MV4-11, MV-4-11, Leukemia): 5.45 | GI50 (MV4-11, MV-4-11, Leukemia): 3570 nM | pIC50 (MV4-11, MV-4-11, Leukemia): 5.45 | pEC50 (MX1, Leukemia): 5.89 | GI50 (MX1, Leukemia): 1290 nM | pIC50 (MX1, Leukemia): 5.89 | pEC50 [7]: 5.75 | GI50 [7]: 1660 nM | pIC50 [7]: 5.75 | pEC50 (MeWo, Skin (Melanoma)): 5.88 | GI50 (MeWo, Skin (Melanoma)): 1310 nM | pIC50 (MeWo, Skin (Melanoma)): 5.88 | pEC50 (NALM-6, NALM-6, Leukemia): 5.74 | GI50 (NALM-6, NALM-6, Leukemia): 1810 nM | pIC50 (NALM-6, NALM-6, Leukemia): 5.74 | pEC50 (NAMALWA, Lymphoma): 5.47 | GI50 (NAMALWA, Lymphoma): 3390 nM | pIC50 (NAMALWA, Lymphoma): 5.47 | pEC50 (NCI-H69, NCI-H69, Lung - SCLC): 5.20 | GI50 (NCI-H69, NCI-H69, Lung - SCLC): 5840 nM | pIC50 (NCI-H69, NCI-H69, Lung - SCLC): 5.19 | pEC50 [8]: 5.49 | GI50 [8]: 3180 nM | pIC50 [8]: 5.49 | GI50 (NCI-H295R, Endocrine - Adrenal gland): 13500 nM | pEC50 [9]: 4.92 | GI50 [9]: 11700 nM | pIC50 [9]: 4.92 | pEC50 (NCI-H446, NCIH446, Lung - SCLC): 4.99 | GI50 (NCI-H446, NCIH446, Lung - SCLC): 10000 nM | pIC50 (NCI-H446, NCIH446, Lung - SCLC): 4.99 | pEC50 [10]: 5.63 | GI50 [10]: 2330 nM | pIC50 [10]: 5.63 | pEC50 (NCI-H508, NCI-H508, Colon): 4.84 | GI50 (NCI-H508, NCI-H508, Colon): 14300 nM | pIC50 (NCI-H508, NCI-H508, Colon): 4.84 | pEC50 [11]: 5.61 | GI50 [11]: 2410 nM | pIC50 [11]: 5.61 | pEC50 [12]: 5.06 | GI50 [12]: 8410 nM | pIC50 [12]: 5.06 | pEC50 [13]: 5.64 | GI50 [13]: 2280 nM | pIC50 [13]: 5.64 | pEC50 (NCI-H747, NCI-H747, Colon): 5.51 | GI50 (NCI-H747, NCI-H747, Colon): 3100 nM | pIC50 (NCI-H747, NCI-H747, Colon): 5.51 | pEC50 [14]: 5.65 | GI50 [14]: 2200 nM | pIC50 [14]: 5.65 | pEC50 (OCUG-1, OCUG-1, Liver): 5.37 | GI50 (OCUG-1, OCUG-1, Liver): 4290 nM | pIC50 (OCUG-1, OCUG-1, Liver): 5.37 | pEC50 (OE19, OE19, Head and Neck): 5.49 | GI50 (OE19, OE19, Head and Neck): 3210 nM | pIC50 (OE19, OE19, Head and Neck): 5.49 | pEC50 (OE21, OE21, Head and Neck): 5.43 | GI50 (OE21, OE21, Head and Neck): 3670 nM | pIC50 (OE21, OE21, Head and Neck): 5.43 | pEC50 [15]: 5.82 | GI50 [15]: 1520 nM | pIC50 [15]: 5.80 | pEC50 (PA-1, Female GU - Ovary): 5.38 | GI50 (PA-1, Female GU - Ovary): 4210 nM | pIC50 (PA-1, Female GU - Ovary): 5.38 | pEC50 (PANC-1, PANC-1, Pancreas): 5.54 | GI50 (PANC-1, PANC-1, Pancreas): 2830 nM | pIC50 (PANC-1, PANC-1, Pancreas): 5.54 | pEC50 (PC-3, Prostate): 5.41 | GI50 (PC-3, Prostate): 3860 nM | pIC50 (PC-3, Prostate): 5.41 | pEC50 (PFSK-1, PFSK-1, CNS - Glioma): 5.36 | GI50 (PFSK-1, PFSK-1, CNS - Glioma): 4310 nM | pIC50 (PFSK-1, PFSK-1, CNS - Glioma): 5.36 | pEC50 (PSN1, PSN-1, Pancreas): 5.63 | GI50 (PSN1, PSN-1, Pancreas): 2320 nM | pIC50 (PSN1, PSN-1, Pancreas): 5.63 | pEC50 (RD, Soft Tissue - Sarcoma): 6.09 | GI50 (RD, Soft Tissue - Sarcoma): 810 nM | pIC50 (RD, Soft Tissue - Sarcoma): 6.09 | pEC50 (RKO, Colon): 5.77 | GI50 (RKO, Colon): 1690 nM | pIC50 (RKO, Colon): 5.77 | pEC50 (RKOE6, RKOE6, Colon): 5.76 | GI50 (RKOE6, RKOE6, Colon): 1720 nM | pIC50 (RKOE6, RKOE6, Colon): 5.76 | pEC50 (RPMI-6666, RPMI 6666, Lymphoma): 5.45 | GI50 (RPMI-6666, RPMI 6666, Lymphoma): 3440 nM | pIC50 (RPMI-6666, RPMI 6666, Lymphoma): 5.45 | pEC50 [16]: 6.15 | GI50 [16]: 700 nM | pIC50 [16]: 6.15 | pEC50 (RPMI-8226, RPMI 8226, Myeloma): 6.17 | GI50 (RPMI-8226, RPMI 8226, Myeloma): 670 nM | pIC50 (RPMI-8226, RPMI 8226, Myeloma): 6.17 | pEC50 (RS4-11, RS4, 11, Leukemia): 5.75 | GI50 (RS4-11, RS4, 11, Leukemia): 1710 nM | pIC50 (RS4-11, RS4, 11, Leukemia): 5.75 | pEC50 (Raji, Lymphoma): 5.34 | GI50 (Raji, Lymphoma): 4590 nM | pIC50 (Raji, Lymphoma): 5.34 | pEC50 (Ramos, Ramos (RA 1), Lymphoma): 5.53 | GI50 (Ramos, Ramos (RA 1), Lymphoma): 2960 nM | pIC50 (Ramos, Ramos (RA 1), Lymphoma): 5.53 | pEC50 [17]: 5.70 | GI50 [17]: 2040 nM | pIC50 [17]: 5.68 | pEC50 (SCC-4, SCC-4, Head and Neck): 5.33 | GI50 (SCC-4, SCC-4, Head and Neck): 4630 nM | pIC50 (SCC-4, SCC-4, Head and Neck): 5.33 | pEC50 (SCC-9, SCC-9, Head and Neck): 5.46 | GI50 (SCC-9, SCC-9, Head and Neck): 3440 nM | pIC50 (SCC-9, SCC-9, Head and Neck): 5.46 | pEC50 (SCC-25, SCC-25, Head and Neck): 5.40 | GI50 (SCC-25, SCC-25, Head and Neck): 3950 nM | pIC50 (SCC-25, SCC-25, Head and Neck): 5.40 | pEC50 (SCaBER, Bladder): 5.51 | GI50 (SCaBER, Bladder): 3100 nM | pIC50 (SCaBER, Bladder): 5.51 | pEC50 (SH-4, Skin (Melanoma)): 5.71
